Experimental findings from patent US7906655B2, “Hepatitis C virus inhibitors” (Bristol-Myers Squibb Company, priority 2008, dated 2011) are described below.

Some results are limits rather than exact numbers.

The subject of the first experiment is HCV 1b genotype. Kind of experiment: HCV Replicon assay (HCV-neo replicon cells, wild-type). It counts as cell-based. The settings on record: HCV 1b genotype replicon; class symbols. The method in brief: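 Assay used wild-type HCV genotype 1b replicon cells carrying neo, with luciferase reporter read-outs in some formats.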
With `O=C1CC[C@@H](c2nc3cc(CCc4ccc5nc([C@@H]6CCC(=O)N6C(=O)OCc6ccccc6)[nH]c5c4)ccc3[nH]2)N1C(=O)OCc1ccccc1` [OL3, benzyl (2S)-2-(5-(2-(2-((2S)-1-(((benzyloxy)carbonyl)-5-oxo-2-pyrrolidinyl)-1H-benzimidazol-6-yl)ethyl)-1H-benzimidazol-2-yl)-5-oxo-1-pyrrolidinecarboxylate], the EC50 is 0.1 to 0.999 µM.

On to `CSCC[C@H](NC(=O)OCc1ccccc1)c1nc2cc(CCc3ccc4nc([C@H](CCSC)NC(=O)OCc5ccccc5)[nH]c4c3)ccc2[nH]1` [OL4, benzyl ((1S)-1-(5-(2-(2-((1S)-1-(((benzyloxy)carbonyl)amino)-3-(methylsulfanyl)propyl)-1H-benzimidazol-6-yl)ethyl)-1H-benzimidazol-2-yl)-3-(methylsulfanyl)propyl) carbamate], for which the 50% effective concentration (EC50) fell in the range of 0.00457 to 0.099 µM.

In the case of `C[C@@H](NC(=O)OCc1ccccc1)c1nc2cc(CCc3ccc4nc([C@@H](C)NC(=O)OCc5ccccc5)[nH]c4c3)ccc2[nH]1` [OL6, benzyl ((1R)-1-(5-(2-(2-(1R)-1-(((benzyloxy)carbonyl)amino)ethyl-1H-benzimidazol-6-yl)ethyl)-1H-benzimidazol-2-yl)ethyl)carbamate], the EC50 was 0.1 to 0.999 µM.

Staying with this experiment, now noted: Hepatitis C virus, HCV 1b genotype replicon; class symbols.
Turning to `CN(C)[C@@H](C(=O)N1CCC[C@H]1c1nc2cc(-c3ccc(-c4ccc5nc([C@@H]6CCCN6C(=O)[C@@H](c6ccccc6)N(C)C)[nH]c5c4)o3)ccc2[nH]1)c1ccccc1` [JG4, (1R)-2-((2S)-2-(5-(5-(2-((2S)-1-((2R)-2-(dimethylamino)-2-phenylacetyl)-2-pyrrolidinyl)-1H-benzimidazol-6-yl)-2-furyl)-1H-benzimidazol-2-yl)-1-pyrrolidinyl)-N,N-dimethyl-2-oxo-1-phenylethanamine], the EC50 is less than 0.00457 µM.

Regarding `C[C@H](NC(=O)OCc1ccccc1)c1nc2cc(CCc3ccc4[nH]c([C@H](C)NC(=O)OCc5ccccc5)nc4c3)ccc2[nH]1` [OL1, benzyl((1S)-1-(5-(2-(2-((1)-1-(((benzyloxy)carbonyl)amino)ethyl)-1H-benzimidazol-6-yl)ethyl)-1H-benzimidazol-2-yl)ethyl)carbamate], the EC50 is 0.00457 to 0.099 µM.

For the compound `CC(C)(C)O[C@@H]1C[C@@H](c2nc3cc(CCc4ccc5nc([C@@H]6C[C@@H](OC(C)(C)C)CN6C(=O)OCc6ccccc6)[nH]c5c4)ccc3[nH]2)N(C(=O)OCc2ccccc2)C1` [OL5, benzyl (2S,4R)-2-(5-(2-(2-((2S,4R)-1-((benzyloxy)carbonyl)-4-tert-butoxy-2-pyrrolidinyl)-1H-benzimidazol-6-yl)ethyl)-1H-benzimidazol-2-yl)-4-tert-butoxy-1-pyrrolidinecarboxylate], the EC50 lay in the range of 0.1 to 0.999 µM.

As for `CC[C@H](NC(=O)OCc1ccccc1)c1nc2cc(CCc3ccc4nc([C@H](CC)NC(=O)OCc5ccccc5)[nH]c4c3)ccc2[nH]1` [OL7, benzyl ((1S)-1-(5-(2-(2-((1S)-1-(((benzyloxy)carbonyl)amino)propyl)-1H-benzimidazol-6-yl)ethyl)-1H-benzimidazol-2-yl)propyl)carbamate], the EC50 fell in the range of 0.00457 to 0.099 µM.

With `CC(C)(C)OC(=O)C[C@H](NC(=O)OCc1ccccc1)c1nc2cc(CCc3ccc4nc([C@H](CC(=O)OC(C)(C)C)NC(=O)OCc5ccccc5)[nH]c4c3)ccc2[nH]1` [OL9, tert-butyl (3S)-3-(((benzyloxy)carbonyl)amino)-3-(5-(2-(2-((1S)-1-(((benzyloxy)carbonyl)amino)-3-tert-butoxy-3-oxopropyl)-1H-benzimidazol-6-yl)ethyl)-1H-benzimidazol-2-yl)propanoate], the EC50 is 0.00457 to 0.099 µM.

Consider `CC(C)(C)OC(=O)CC[C@H](NC(=O)OCc1ccccc1)c1nc2cc(CCc3ccc4nc([C@H](CCC(=O)OC(C)(C)C)NC(=O)OCc5ccccc5)[nH]c4c3)ccc2[nH]1` [OL10, tert-butyl (4S)-4-(((benzyloxy)carbonyl)amino)-4-(5-(2-(2-((1S)-1-(((benzyloxy)carbonyl)amino)-4-tert-butoxy-4-oxobutyl)-1H-benzimidazol-6-yl)ethyl)-1H-benzimidazol-2-yl)butanoate], for which the EC50 lay within 0.1 to 0.999 µM.

Turning to `O=C(C1CC1)N1CCN(C(=O)OCc2ccccc2)C(c2nc3cc(CCc4ccc5nc(C6CN(C(=O)C7CC7)CCN6C(=O)OCc6ccccc6)[nH]c5c4)ccc3[nH]2)C1` (stereo not drawn) [OL12, benzyl 2-(5-(2-(2-(1-((benzyloxy)carbonyl)-4-(cyclopropylcarbonyl)-2-piperazinyl)-1H-benzimidazol-6-yl)ethyl)-1H-benzimidazol-2-yl)-4-(cyclopropylcarbonyl)-1-piperazinecarboxylate], the EC50 lay within 0.1 to 0.999 µM.

Take `CN(C)C(=O)C[C@H](NC(=O)OCc1ccccc1)c1nc2cc(CCc3ccc4[nH]c([C@H](CC(=O)N(C)C)NC(=O)OCc5ccccc5)nc4c3)ccc2[nH]1` [OL14, benzyl((1S)-1-(5-(2-(2-((1S)-1-(((benzyloxy)carbonyl)amino)-3-(dimethylamino)-3-oxopropyl)-1H-benzimidazol-6-yl)ethyl)-1H-benzimidazol-2-yl)-3-(dimethylamino)-3-oxopropyl)carbamate]: the EC50 lay in the range of 0.1 to 0.999 µM.

`C[C@H](NC(=O)[C@H]1CCCO1)c1nc2cc(CCc3ccc4[nH]c([C@H](C)NC(=O)[C@H]5CCCO5)nc4c3)ccc2[nH]1` [OL15, (2R,2′R)—N,N′-(1,2-ethanediylbis(1H-benzimidazole-5,2-diyl(1S)-1,1-ethanediyl))ditetrahydro-2-furancarboxamide]: the EC50 fell in the range of 0.1 to 0.999 µM.

Still in this experiment, the particulars now being: Hepatitis C virus, HCV 1b genotype replicon; numeric values.
Take `CC(C)(C)OC[C@H](NC(=O)OCc1ccccc1)c1nc2cc(CCc3ccc4nc([C@H](COC(C)(C)C)NC(=O)OCc5ccccc5)[nH]c4c3)ccc2[nH]1` [OL2, benzyl ((1R)-1-(5-(2-(2-((1R)-1-(((benzyloxy)carbonyl)amino)-2-tert-butoxyethyl)-1H-benzimidazol-6-yl)ethyl)-1H-benzimidazol-2-yl)-2-tert-butoxyethyl)carbamate]: the EC50 was 0.02 µM.

For `CC(C)(C)OC(=O)N1CCN(C(=O)OCc2ccccc2)C(c2nc3cc(CCc4ccc5nc(C6CN(C(=O)OC(C)(C)C)CCN6C(=O)OCc6ccccc6)[nH]c5c4)ccc3[nH]2)C1` (stereo not drawn) [OL8, 1-benzyl 4-tert-butyl 2-(5-(2-(2-(1-((benzyloxy)carbonyl)-4-(tert-butoxycarbonyl)-2-piperazinyl)-1H-benzimidazol-6-yl)ethyl)-1H-benzimidazol-2-yl)-1,4-piperazinedicarboxylate], the EC50 was 2.88 µM.

Consider `O=C(c1ccncc1)N1CCN(C(=O)OCc2ccccc2)C(c2nc3cc(CCc4ccc5nc(C6CN(C(=O)c7ccncc7)CCN6C(=O)OCc6ccccc6)[nH]c5c4)ccc3[nH]2)C1` (stereo not drawn) [OL13, benzyl 2-(5-(2-(2-(1-((benzyloxy)carbonyl)-4-isonicotinoyl-2-piperazinyl)-1H-benzimidazol-6-yl)ethyl)-1H-benzimidazol-2-yl)-4-isonicotinoyl-1-piperazinecarboxylate], for which the EC50 was determined as 8.56 µM.

One may read the EC50 as the midpoint of the concentration-response curve.
